From ChEMBL document CHEMBL1137975, “DNA binding ligands with in vivo efficacy in murine models of bacterial infection: optimization of internal aromatic amino acids” (2004)
In brackets after ≈: the same amount, converted by molar mass.

Columns and labels:
Enterococcus faecalis = assay: Minimum inhibitory concentration in mice against antimicrobial activity in vancomycin-sensitive Enterococcus faecalis (VSEF 29212).
Staphylococcus aureus = assay: Minimum inhibitory concentration in mice against antimicrobial activity in methicillin-resistant Staphylococcus aureus(MRSA 27660).; format: functional
[1] = Minimum inhibitory concentration in mice against antimicrobial activity in […] (PISP 49619).; format: functional; settings: Streptococcus pneumoniae
Mus musculus [2] = species: Mus musculus; assay: Minimum inhibitory concentration was evaluated in mice against antimicrobial activity in […] Enterococcus faecalis (VSEF 29212); 0.13-1; format: functional
Mus musculus [3] = species: Mus musculus; assay: Minimum inhibitory concentration was evaluated in mice against antimicrobial activity in […] (PISP 49619); 0.03-0.13; format: functional
Mus musculus [4] = species: Mus musculus; assay: Minimum inhibitory concentration was evaluated in mice against antimicrobial activity in methicillin-resistant Staphylococcus aureus(MRSA 27660); 0.25-1; format: functional
Mus musculus [5] = species: Mus musculus; assay: Minimum inhibitory concentration was evaluated in mice against antimicrobial activity in […] (PISP 49619); 1-2; format: functional
Mus musculus [6] = species: Mus musculus; assay: Minimum inhibitory concentration was evaluated in mice against antimicrobial activity in […] Enterococcus faecalis (VSEF 29212); 0.5-2; format: functional
Mus musculus [7] = species: Mus musculus; assay: Minimum inhibitory concentration was evaluated in mice against antimicrobial activity in […] (PISP 49619); 0.5-2; format: functional
Mus musculus [8] = species: Mus musculus; assay: Minimum inhibitory concentration was evaluated in mice against antimicrobial activity in […] Enterococcus faecalis (VSEF 29212); 2-8; format: functional

Cn1cc(NC(=O)c2ccc(NC(=O)c3cc(NC(=O)c4cc5cc6c(cc5s4)OCO6)cn3C)cc2)cc1C(=O)NCCN1CCOCC1
MIC (Enterococcus faecalis): > 32 µg/mL
MIC (Staphylococcus aureus): 32 µg/mL (≈ 45.9 µM)
MIC [1]: 0.5 µg/mL (≈ 0.717 µM)

Cn1cc(NC(=O)c2ccc(NC(=O)c3cc(NC(=O)c4ccccn4)cn3C)cc2)cc1C(=O)NCCN1CCOCC1
MIC (Enterococcus faecalis): > 32 µg/mL
MIC (Staphylococcus aureus): > 32 µg/mL
MIC [1]: 0.5 µg/mL (≈ 0.835 µM)

Cn1cc(NC(=O)c2cc(NC(=O)c3nc(NC(=O)c4sccc4Cl)cn3C)cn2C)cc1C(=O)NCCN1CCOCC1
MIC (Mus musculus [2]): 1 µg/mL (≈ 1.56 µM)
MIC (Mus musculus [3]): 0.13 µg/mL (≈ 0.202 µM)

CC(C)n1cc(NC(=O)c2cc(NC(=O)c3sccc3Cl)cn2C)cc1C(=O)Nc1cc(C(=O)NCCN2CCOCC2)n(C)c1
MIC (Enterococcus faecalis): 1 µg/mL (≈ 1.49 µM)
MIC (Staphylococcus aureus): 1 µg/mL (≈ 1.49 µM)
MIC [1]: 0.5 µg/mL (≈ 0.747 µM)

Cn1cc(NC(=O)c2cc(NC(=O)c3nc(NC(=O)c4cc5ccccc5cn4)cn3C)cn2C)cc1C(=O)NCCN1CCOCC1
MIC (Enterococcus faecalis): 1 µg/mL (≈ 1.53 µM)
MIC (Staphylococcus aureus): 1 µg/mL (≈ 1.53 µM)
MIC [1]: 0.25 µg/mL (≈ 0.383 µM)

Cn1cc(NC(=O)c2ccc(NC(=O)c3cc(NC(=O)c4cnc5ccccc5c4)cn3C)cc2)cc1C(=O)NCCN1CCOCC1
MIC (Enterococcus faecalis): > 32 µg/mL
MIC (Staphylococcus aureus): > 32 µg/mL
MIC [1]: 2 µg/mL (≈ 3.08 µM)

Cn1cc(NC(=O)c2nc(NC(=O)c3cc(NC(=O)c4sccc4Cl)cn3C)cn2C)cc1C(=O)NCCN1CCOCC1
MIC (Enterococcus faecalis): > 32 µg/mL
MIC (Staphylococcus aureus): > 32 µg/mL
MIC [1]: 16 µg/mL (≈ 24.9 µM)

Cn1cc(NC(=O)c2sccc2Cl)cc1C(=O)Nc1cc(C(=O)Nc2ccc(C(=O)NCCN3CCOCC3)cc2)n(C)c1
MIC (Enterococcus faecalis): > 32 µg/mL
MIC (Staphylococcus aureus): > 32 µg/mL
MIC [1]: > 32 µg/mL

Cn1cc(NC(=O)c2sccc2Cl)cc1C(=O)Nc1cc(C(=O)Nc2c[nH]c(C(=O)NCCN3CCOCC3)c2)n(C)c1
MIC (Enterococcus faecalis): 32 µg/mL (≈ 51 µM)
MIC (Staphylococcus aureus): 16 µg/mL (≈ 25.5 µM)
MIC [1]: 8 µg/mL (≈ 12.8 µM)

Cn1cc(NC(=O)c2cc(NC(=O)c3cc(NC(=O)c4cc5ccccc5cn4)cn3C)c[nH]2)cc1C(=O)NCCN1CCOCC1
MIC (Mus musculus [4]): 1 µg/mL (≈ 1.57 µM)
MIC (Mus musculus [5]): 2 µg/mL (≈ 3.14 µM)
MIC (Mus musculus [6]): 2 µg/mL (≈ 3.14 µM)

Cn1cc(NC(=O)c2cc(NC(=O)CCNC(=O)c3cc4ccccc4cn3)cn2C)cc1C(=O)NCCN1CCOCC1
MIC (Enterococcus faecalis): 16 µg/mL (≈ 26.6 µM)
MIC (Staphylococcus aureus): 32 µg/mL (≈ 53.3 µM)
MIC [1]: 8 µg/mL (≈ 13.3 µM)

Cn1cc(NC(=O)c2cc(NC(=O)c3cc(NC(=O)c4cc5ccccc5cn4)cn3C)cn2C)cc1C(=O)NCCN1CCOCC1
MIC (Enterococcus faecalis): 0.25 µg/mL (≈ 0.384 µM)
MIC (Staphylococcus aureus): 0.5 µg/mL (≈ 0.767 µM)
MIC [1]: 0.06 µg/mL (≈ 0.0921 µM)

CN[C@H](CC(C)C)C(=O)N[C@H]1C(=O)N[C@@H](CC(N)=O)C(=O)N[C@H]2C(=O)N[C@H]3C(=O)N[C@H](C(=O)N[C@H](C(=O)O)c4cc(O)cc(O)c4-c4cc3ccc4O)[C@H](O)c3ccc(c(Cl)c3)Oc3cc2cc(c3O[C@@H]2O[C@H](CO)[C@@H](O)[C@H](O)[C@H]2O[C@H]2C[C@](C)(N)[C@H](O)[C@H](C)O2)Oc2ccc(cc2Cl)[C@H]1O [VANCOMYCIN]
MIC (Enterococcus faecalis): 1 µg/mL (≈ 0.69 µM)
MIC [1]: 0.25 µg/mL (≈ 0.173 µM)

Cn1cc(NC(=O)c2cc(NC(=O)c3cc(NC(=O)c4sccc4Cl)c[nH]3)cn2C)cc1C(=O)NCCN1CCOCC1
MIC (Enterococcus faecalis): 2 µg/mL (≈ 3.19 µM)
MIC (Staphylococcus aureus): 8 µg/mL (≈ 12.8 µM)
MIC [1]: 2 µg/mL (≈ 3.19 µM)

Cn1cc(NC(=O)c2cc(NC(=O)c3cc(NC(=O)c4sccc4Cl)nn3C)cn2C)cc1C(=O)NCCN1CCOCC1
MIC (Enterococcus faecalis): 8 µg/mL (≈ 12.5 µM)
MIC (Staphylococcus aureus): 8 µg/mL (≈ 12.5 µM)
MIC [1]: 0.25 µg/mL (≈ 0.389 µM)

CC(C)n1cc(NC(=O)c2cc(NC(=O)c3cc(NC(=O)c4sccc4Cl)cn3C)cn2C)cc1C(=O)NCCN1CCOCC1
MIC (Enterococcus faecalis): 1 µg/mL (≈ 1.49 µM)
MIC (Staphylococcus aureus): 1 µg/mL (≈ 1.49 µM)
MIC [1]: 0.25 µg/mL (≈ 0.374 µM)

CC(=O)NCC1CN(c2ccc(N3CCOCC3)c(F)c2)C(=O)O1 (single isomer, unassigned) [LINEZOLID]
MIC [1]: 1 µg/mL (≈ 2.96 µM)

Cn1cc(NC(=O)c2cc(NC(=O)c3cc(NC(=O)c4sccc4Cl)cn3C)c[nH]2)cc1C(=O)NCCN1CCOCC1
MIC (Mus musculus [7]): 2 µg/mL (≈ 3.19 µM)
MIC (Mus musculus [8]): 8 µg/mL (≈ 12.8 µM)
MIC (Staphylococcus aureus): 8 µg/mL (≈ 12.8 µM)

Cn1cc(NC(=O)c2ccc(NC(=O)c3cc(NC(=O)c4ccc(F)cc4F)cn3C)cc2)cc1C(=O)NCCN1CCOCC1
MIC (Enterococcus faecalis): 8 µg/mL (≈ 12.6 µM)
MIC (Staphylococcus aureus): 32 µg/mL (≈ 50.5 µM)
MIC [1]: 0.5 µg/mL (≈ 0.789 µM)

Cn1cc(NC(=O)c2cc(NC(=O)c3cc(NC(=O)c4cc5ccccc5cn4)cn3C)cs2)cc1C(=O)NCCN1CCOCC1
MIC (Enterococcus faecalis): > 32 µg/mL
MIC (Staphylococcus aureus): 8 µg/mL (≈ 12.2 µM)
MIC [1]: 0.5 µg/mL (≈ 0.764 µM)
